For orientation: pIC50 means the negative decadic logarithm of the IC50, by convention in mol/L.

pIC50: −log10 of the molar value.

The source of these data is patent US10011595B2 (Merck Sharp & Dohme Corp., priority 2014, dated 2018).

The target in this experiment is human orexin-2 receptor (Homo sapiens (Human), UniProt O43614). Nature of the experiment: FLIPR Ca2+ Flux Assay, orexin-2 receptor. The format is cell-based. To be noted: CHO cells expressing the human orexin-2 receptor; agonist 70 pM Ala-6,12 orexin-A; read-out: hOX2R FLIPR IC50. The procedure:
In a typical experiment the OX1 and OX2 receptor antagonistic activity of the compounds of the present invention was determined in accordance with the following experimental method. For intracellular calcium measurements, Chinese hamster ovary (CHO) cells expressing the rat orexin-1 receptor or the human orexin-2 receptor, are grown in Iscove's modified DMEM containing 2 mM L-glutamine, […], 1% hypoxanthine-thymidine supplement, 100 U/ml penicillin, 100 μg/ml streptomycin and 10% heat-inactivated fetal calf serum (FCS). The cells are seeded at 20,000 cells/well into Becton-Dickinson black 384-well clear bottom sterile plates coated with poly-D-lysine. All reagents were from GIBCO-Invitrogen Corp. The seeded plates are incubated overnight at 37° C. and 5% CO2. Ala-6,12 human orexin-A as the agonist is prepared as a 1 mM stock solution in 1% bovine serum albumin (BSA) and diluted in assay buffer (HBSS containing 20 mM HEPES, 0.1% BSA and 2.5 mM probenecid, pH7.4) for use in the assay at a final concentration of 70 pM. Test compounds are prepared as 10 mM stock solution in DMSO, then diluted in 384-well plates, first in DMSO, then assay buffer. On the day of the assay, cells are washed 3 times with 100 μl assay buffer and then incubated for 60 min (37° C., 5% CO2) in 60 μl assay buffer containing 1 μM Fluo-4AM ester, 0.02% pluronic acid, and 1% BSA. The dye loading solution is then aspirated and cells are washed 3 times with 100 μl assay buffer. 30 μl of that same buffer is left in each well. Within the Fluorescent Imaging Plate Reader (FLIPR, Molecular Devices), test compounds are added to the plate in a volume of 25 μl, incubated for 5 min and finally 25 μl of agonist is added. Fluorescence is measured for each well at 1 second intervals for 5 minutes and the height of each fluorescence peak is compared to the height of the fluorescence peak induced by 70 pM Ala-6,12 orexin-A with buffer in place of antagonist. For each antagonist, IC50 value (the concentration of compound needed to inhibit 50% of the agonist response) is determined. Alternatively, compound potency can be assessed by a radioligand binding assay (described in Bergman et. al. Bioorg. Med. Chem. Lett. 2008, 18, 1425-1430) in which the inhibition constant (Ki) is determined in membranes prepared from CHO cells expressing either the OX1 or OX2 receptor. The intrinsic orexin receptor antagonist activity of a compound which may be used in the present invention may be determined by these assays.
(In general: Calcium flux is commonly read through the fluorescence of an indicator in the cells.)

human orexin-2 receptor, sequence (O43614 whole entry): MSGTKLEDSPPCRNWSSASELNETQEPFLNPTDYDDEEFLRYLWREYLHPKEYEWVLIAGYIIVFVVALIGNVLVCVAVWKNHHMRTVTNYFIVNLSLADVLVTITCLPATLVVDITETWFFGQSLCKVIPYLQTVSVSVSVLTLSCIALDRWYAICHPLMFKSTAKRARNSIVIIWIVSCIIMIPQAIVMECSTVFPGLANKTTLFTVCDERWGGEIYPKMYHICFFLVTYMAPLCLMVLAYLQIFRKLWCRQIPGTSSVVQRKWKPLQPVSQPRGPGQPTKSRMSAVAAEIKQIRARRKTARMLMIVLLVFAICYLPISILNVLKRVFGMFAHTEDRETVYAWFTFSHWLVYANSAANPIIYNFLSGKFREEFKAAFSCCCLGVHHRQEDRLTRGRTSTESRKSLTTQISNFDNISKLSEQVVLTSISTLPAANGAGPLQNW

With `CCN(CCN(C)c1cc(C#N)ccn1)C(=O)c1cccc2oc(=O)[nH]c12` [Example F-23, N-{2-[(4-cyanopyridin-2-yl)(methyl)amino]ethyl}-N-ethyl-2-oxo-2,3-dihydro-1,3-benzoxazole-4-carboxamide], the negative logarithm of the IC50 (pIC50) is 5.00.
In the case of `CCN(CCN(C)c1cc(C#N)ccn1)C(=O)c1ccccc1-c1ncc[nH]1` [Example F-24, N-{2-[(4-cyanopyridin-2-yl)(methyl)amino]ethyl}-N-ethyl-2-(1H-imidazol-2-yl)benzamide] it was 5.79.
The value for `CCN(CCN(C)c1cc(C#N)ccn1)C(=O)c1ccccc1-n1cnnn1` [Example F-25, N-{2-[(4-cyanopyridin-2-yl)(methyl)amino]ethyl}-N-ethyl-2-(1H-tetrazol-1-yl)benzamide] was 5.36; that for `CCN(CCN(C)c1cc(C#N)ccn1)C(=O)c1ccccc1C1(C#N)CC1` [Example F-26, 2-(1-cyanocyclopropyl)-N-{2-[(4-cyanopyridin-2-yl)(methyl)amino]ethyl}-N-ethylbenzamide] was 7.72; that for `CCN(CCN(C)c1cc(C#N)ccn1)C(=O)c1ccccc1-c1nc(C)no1` [Example F-27, N-{2-[(4-cyanopyridin-2-yl)(methyl)amino]ethyl}-N-ethyl-2-(3-methyl-1,2,4-oxadiazol-5-yl)benzamide] was 7.62.
In the case of `CCN(CCN(C)c1cc(C#N)ccn1)C(=O)c1ccccc1-n1ccnn1` [Example F-28, N-{2-[(4-cyanopyridin-2-yl)(methyl)amino]ethyl}-N-ethyl-2-(1H-1,2,3-triazol-1-yl)benzamide] it was 6.34.
As to `CCOc1cccc(C(=O)N(CC)CCN(C)c2cc(C#N)ccn2)c1OC` [Example F-29, N-{2-[(4-cyanopyridin-2-yl)(methyl)amino]ethyl}-3-ethoxy-N-ethyl-2-methoxybenzamide], the pIC50 was 5.00.
In the case of `CCN(CCN(C)c1cc(C#N)ccn1)C(=O)c1cc(F)ccc1-n1nccn1` [Example F-30, N-{2-[(4-cyanopyridin-2-yl)(methyl)amino]ethyl}-N-ethyl-5-fluoro-2-(2H-1,2,3-triazol-2-yl)benzamide] it was 7.61; in that of `CCN(CCN(C)c1cc(C#N)ccn1)C(=O)c1ccc(OCC(F)(F)F)nc1` [Example F-31, N-{2-[(4-cyanopyridin-2-yl)(methyl)amino]ethyl}-N-ethyl-6-(2,2,2-trifluoroethoxy)pyridine-3-carboxamide], 5.00; in that of `CN(CCN(C)c1cc(C#N)ccn1)C(=O)c1ccccc1-n1nccn1` [Example G-1, N-(2-((4-cyanopyridin-2-yl)(methyl)amino)ethyl)-N-methyl-2-(2H-1,2,3-triazol-2-yl)benzamide], 7.06.
The value for `CCCN(CCN(C)c1cc(C#N)ccn1)C(=O)c1ccccc1-n1nccn1` [Example G-4, N-(2-((4-cyanopyridin-2-yl)(methyl)amino)ethyl)-N-propyl-2-(2H-1,2,3-triazol-2-yl)benzamide] was 7.92.
In the case of `CCCCN(CCN(C)c1cc(C#N)ccn1)C(=O)c1ccccc1-n1nccn1` [Example G-5, N-butyl-N-(2-((4-cyanopyridin-2-yl)(methyl)amino)ethyl)-2-(2H-1,2,3-triazol-2-yl)benzamide] it was 7.70; in that of `CN(CCN(Cc1ccccc1)C(=O)c1ccccc1-n1nccn1)c1cc(C#N)ccn1` [Example G-6, N-benzyl-N-(2-((4-cyanopyridin-2-yl)(methyl)amino)ethyl)-2-(2H-1,2,3-triazol-2-yl)benzamide], 6.95; in that of `CN(CCN(CC1CC1)C(=O)c1ccccc1-n1nccn1)c1cc(C#N)ccn1` [Example G-7, N-(2-((4-cyanopyridin-2-yl)(methyl)amino)ethyl)-N-(cycloproplmethyl)-2-(2H-1,2,3-triazol-2-yl)benzamide], 7.45.
On to `CC(C)CN(CCN(C)c1cc(C#N)ccn1)C(=O)c1ccccc1-n1nccn1` [Example G-8, N-(2-((4-cyanopyridin-2-yl)(methyl)amino)ethyl)-N-isobutyl-2-(2H-1,2,3-triazol-2-yl)benzamide], for which the pIC50 is 7.91.
The value for `CC(C)N(CCN(C)c1cc(C#N)ccn1)C(=O)c1ccccc1-n1nccn1` [Example G-9, N-(2-((4-cyanopyridin-2-yl)(methyl)amino)ethyl)-N-isopropyl-2-(2H-1,2,3-triazol-2-yl)benzamide] was 7.12; that for `CCN(CCN(C)c1nccc(C(C)(C)O)n1)C(=O)c1ccccc1-n1nccn1` [Example H-1, N-ethyl-N-(2-((4-(2-hydroxypropan-2-yl)pyrimidin-2-yl)(methy)amino)ethyl)-2-(2H-1,2,3-triazol-2-yl)benzamide] was 7.96.
The value for `CCN(CCN(C)c1nccc(C(C)(C)O)n1)C(=O)c1cccnc1OC(C)C` [Example H-14, N-ethyl-N-(2-((4-(2-hydroxypropan-2-yl)pyrimidin-2-yl)(methyl)amino)ethyl)-2-isopropoxynicotinamide] was 7.18; that for `CCOc1ncccc1C(=O)N(CC)CCN(C)c1nccc(C(C)(C)O)n1` [Example H-15, 2-ethoxy-N-ethyl-N-(2-((4-(2-hydroxypropan-2-yl)pyrimidin-2-yl)(methyl)amino)ethyl) nicotinamide] was 7.11.
The value for `CCN(CCN(C)c1nccc(C(C)(C)O)n1)C(=O)c1cccnc1OCC(F)F` [Example H-16, 2-(2,2-difluoroethoxy)-N-ethyl-N-(2-((4-(2-hydroxypropan-2-yl)pyrimidin-2-yl)(methyl)amino)ethyl) nicotinamide] was 7.62.
For the compound `CCN(CCN(C)c1nccc(C(C)(C)O)n1)C(=O)c1cccnc1OCC(F)(F)F` [Example H-17], the negative-log IC50 (pIC50) is 7.66.
The value for `CCN(CCN(C)c1nccc(C(C)(C)O)n1)C(=O)c1ccccc1OC(F)F` [Example H-18, 2-(difluoromethoxy)-N-ethyl-N-(2-((4-(2-hydroxypropan-2-yl)pyrimidin-2-yl)(methyl)amino)ethyl) benzamide] was 7.31; that for `CCCc1ccccc1C(=O)N(CC)CCN(C)c1nccc(C(C)(C)O)n1` [Example H-19, N-ethyl-N-(2-((4-(2-hydroxypropan-2-yl)pyrimidin-2-yl)(methyl)amino)ethyl)-2-propylbenzamide] was 7.88.
The value for `CCN(CCN(C)c1nccc(C(C)(C)O)n1)C(=O)c1ccccc1OCC(F)(F)F` [Example H-20, N-ethyl-N-(2-((4-(2-hydroxypropan-2-yl)pyrimidin-2-yl)(methyl)amino)ethyl)-2-(2,2,2-trifluoroethoxy)benzamide] was 7.49; that for `CCN(CCN(C)c1nccc(C(C)(C)O)n1)C(=O)c1ccccc1CC(F)(F)F` [Example H-21, N-ethyl-N-(2-((4-(2-hydroxypropan-2-yl)pyrimidin-2-yl)(methyl)amino)ethyl)-2-(2,2,2-trifluoroethyl)benzamide] was 7.75; that for `CCN(CCN(C)c1nccc(C(C)(C)O)n1)C(=O)c1ccccc1OCC(F)F` [Example H-22, 2-(2,2-difluoroethoxy)-N-ethyl-N-(2-((4-(2-hydroxypropan-2-yl)pyrimidin-2-yl)(methyl)amino)ethyl) benzamide] was 7.75.
